The values that follow come from patent publication US5493020A, “Tricyclic inhibitors of the GPIIb IIIa receptor” (Genentech, Inc., priority 1993, dated 1996).

Assay [1] has as its system human platelet rich plasma (platelet aggregation). Put plainly: platelet aggregation (PA) inhibition assay in human platelet rich plasma. The class given is cell-based. As to the method:
In addition to the GPIIb IIIa ELISA assay, platelet aggregation assays may be performed in human platelet rich plasma (PRP). […] The blood is centrifuged at 160×g for 10 min at 22° C. and then allowed to stand for 5 min after which the PRP is decanted. Platelet poor plasma (PPP) is isolated from the remaining blood after centrifugation at 2000×g for 25 min. The platelet count of the PRP is adjusted to ca. 300,000 per microliter with PPP.
A 225 mL aliquot of PRP plus 25 mL of either a dilution of the test sample or a control (PBS) is incubated for 5 min in a Chrono-log Whole Blood Aggregometer at 25° C. An aggregating agent (collagen, 1 mg/ml; U46619, 100 ng/ml; or ADP, 8 mM) is added and the platelet aggregation recorded.

Assay [2] concerns the target T1, human platelet GPIIbIIIa receptor (Homo sapiens, UniProt P05106+P08514).
T1 construct: purified human platelet GPIIbIIIa receptor; from tissue; host or cells: human platelets (purified, solubilized receptor)
Put plainly: modified fibrinogen-GPIIbIIIa ELISA (inhibition of fibrinogen binding to purified human platelet GPIIbIIIa receptor). How it is done: In-vitro biological activity of the compounds of Formula I and II are monitored using a modified fibrinogen-GPIIbIIIa ELISA based on the method of Nachman and Leung (J. Clin. Invest. 69:263-269 (1982)) which measures the inhibition of fibrinogen binding to purified human platelet GPIIbIIIa receptor. Human fibrinogen is prepared by the method of Lipinska, et al. (J. Lab. Clin. Med. 84:509-516 (1974)). Platelet GPIIb IIIa is prepared by the method of Fitzgerald, et al., Anal. Biochem.,151:169-177 (1985).
Briefly, microtiter plates are coated with fibrinogen ([…]) and then blocked with TACTS buffer containing 0.5% bovine serum albumin (BSA). (TACTS buffer contains 20mM Tris.HCl, pH 7.5, 0.02% sodium azide, 2 mM calcium chloride, 0.05% Tween 20, 150 mM sodium chloride.) The plate is washed with phosphate buffered saline (PBS) containing 0.01% Tween 20 and the sample to be determined added, followed by addition of solubilized GP IIbIIIa receptor ([…]) in TACTS, 0.5% BSA. After incubation, the plate is washed and 1 mg/ml of murine anti-platelet monoclonal antibody AP3 (Newman et al., Blood 65:227-232 (1985)) is added. After another wash a goat anti-mouse IgG conjugated to horseradish peroxidase is added. A final wash is performed and developing reagent buffer (10 mg o-phenylenediamine dihydrochloride, 0.0212% hydrogen peroxide, 0.22 mM citrate, 50 mM phosphate, pH 5.0) is added and then incubated until color develops. The reaction is stopped with 1N sulfuric acid and the absorbance at 492 nm is recorded.

The target in the next assay is GPIIb IIIa. As to conditions: result in words, EP 372 486 (Hoffmann La Roche); cited from earlier work.
Setting [3] is: Platelet, read-out: IC50 PA(citrate).
Setting [4] is: ELISA, read-out: IC50 Fg/IIbIIIa.
The mark [5] stands for this setting: Platelet, read-out: IC50 PA(heparin).
Setting [6] is: platelet aggregation, citrate, read-out: IC50 PA(citrate).
Where [7] appears, read: platelet aggregation, heparin, read-out: IC50 PA(heparin).

Like-named read-outs stand apart in the source and are kept apart here.

T1 sequence (P08514 32-887 limits assumed): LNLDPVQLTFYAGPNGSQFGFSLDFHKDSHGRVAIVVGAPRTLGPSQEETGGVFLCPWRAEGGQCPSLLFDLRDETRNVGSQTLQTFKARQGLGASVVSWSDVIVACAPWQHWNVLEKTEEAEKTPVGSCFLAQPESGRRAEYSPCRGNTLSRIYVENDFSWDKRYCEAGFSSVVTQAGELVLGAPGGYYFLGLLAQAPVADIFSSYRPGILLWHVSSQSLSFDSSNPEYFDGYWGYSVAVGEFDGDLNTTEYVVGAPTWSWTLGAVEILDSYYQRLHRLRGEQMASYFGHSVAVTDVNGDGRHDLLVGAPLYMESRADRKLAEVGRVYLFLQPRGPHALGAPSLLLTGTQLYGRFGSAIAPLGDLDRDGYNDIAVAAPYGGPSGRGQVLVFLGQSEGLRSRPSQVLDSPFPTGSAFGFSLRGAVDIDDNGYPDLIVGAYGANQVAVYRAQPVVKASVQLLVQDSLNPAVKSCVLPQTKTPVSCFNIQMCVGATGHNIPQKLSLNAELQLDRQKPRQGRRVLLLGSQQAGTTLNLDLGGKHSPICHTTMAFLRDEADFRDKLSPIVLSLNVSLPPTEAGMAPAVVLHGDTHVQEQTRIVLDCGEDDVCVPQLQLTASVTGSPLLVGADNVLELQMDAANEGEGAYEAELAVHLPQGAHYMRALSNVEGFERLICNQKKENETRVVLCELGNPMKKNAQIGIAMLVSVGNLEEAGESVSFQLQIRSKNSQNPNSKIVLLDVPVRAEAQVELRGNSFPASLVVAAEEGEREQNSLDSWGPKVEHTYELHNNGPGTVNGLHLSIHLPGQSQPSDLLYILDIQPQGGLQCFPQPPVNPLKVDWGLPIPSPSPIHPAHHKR
T1 sequence (P08514 891-1039 limits assumed): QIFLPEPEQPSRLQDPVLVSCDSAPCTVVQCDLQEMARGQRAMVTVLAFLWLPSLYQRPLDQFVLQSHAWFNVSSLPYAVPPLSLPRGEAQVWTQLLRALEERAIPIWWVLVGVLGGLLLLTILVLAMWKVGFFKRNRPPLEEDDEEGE
T1 sequence (P05106 27-788): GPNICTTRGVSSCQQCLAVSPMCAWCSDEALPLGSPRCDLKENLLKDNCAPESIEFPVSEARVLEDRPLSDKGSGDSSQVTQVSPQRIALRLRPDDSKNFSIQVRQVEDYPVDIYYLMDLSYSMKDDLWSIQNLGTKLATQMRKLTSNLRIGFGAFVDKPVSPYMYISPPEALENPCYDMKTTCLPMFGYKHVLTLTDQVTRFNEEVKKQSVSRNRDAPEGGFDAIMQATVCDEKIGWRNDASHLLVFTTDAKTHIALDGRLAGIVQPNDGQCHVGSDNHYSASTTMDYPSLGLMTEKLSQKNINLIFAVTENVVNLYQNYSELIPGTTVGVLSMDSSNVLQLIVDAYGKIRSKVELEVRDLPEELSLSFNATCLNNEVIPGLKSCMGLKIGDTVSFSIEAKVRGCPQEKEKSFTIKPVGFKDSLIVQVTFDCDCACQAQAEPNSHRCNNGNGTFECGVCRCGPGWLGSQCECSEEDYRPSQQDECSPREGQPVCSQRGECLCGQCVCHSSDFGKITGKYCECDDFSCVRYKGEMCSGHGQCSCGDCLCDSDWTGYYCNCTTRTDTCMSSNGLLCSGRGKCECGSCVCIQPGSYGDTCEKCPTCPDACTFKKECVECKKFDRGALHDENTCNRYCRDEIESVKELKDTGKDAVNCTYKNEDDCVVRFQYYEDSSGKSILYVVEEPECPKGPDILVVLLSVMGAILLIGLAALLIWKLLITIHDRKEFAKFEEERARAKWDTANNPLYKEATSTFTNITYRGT

In the case of `Cc1cnc2n1-c1ccc(C#CCCCCN)cc1C(=O)N(CCC(=O)O)C2` [H2 N(CH2)4 CC], the IC50 in assay [1] (setting [3]) was 8290 nM; in assay [2] (setting [4]) it was 57 nM.

`N=C(N)c1ccc(C(=O)Nc2cccc(C(=O)NCCC(=O)O)c2)cc1` [N-[3-(4-amidinobenzamido)benzoyl]-3-aminoproprionoic acid, reference compound]: the IC50 in assay [1] (Platelet, internal standard, measured according to the assays described herein, anticoagulant not stated, read-out: PA inhibition assay IC50) was approximately 3000 nM; in assay [2] (internal standard, measured according to the assays described herein, read-out: Fg/GPIIb IIIa ELISA IC50), approximately 25 nM.

As for `N=C(N)c1ccc(C(=O)Nc2cccc(C(=O)NCCC(=O)O)c2)cc1` [drawing 2], the “IC50 in an ELISA measurement of fibrinogen GPIIb IIIa binding” value on GPIIb IIIa is “particular low IC50”.

Regarding `Cc1cnc2n1-c1ccc(C#Cc3ccc(C(=N)N)cc3)cc1C(=O)N(CCC(=O)O)C2` [p-H2 N(NH)CC6 H4 CC], the IC50 was found to be 93 nM in assay [1] (setting [3]), 240 nM in assay [1] (setting [5]) and 4 nM in assay [2] (setting [4]).

Turning to `Cc1cnc2n1-c1ccc(OCc3ccc(C(=N)N)cc3)cc1C(=O)N(CCC(=O)O)C2` [p-H2 N(NH)CC6 H4 CH2 O], the IC50 in assay [1] (setting [3]) is 133 nM; in assay [1] (setting [5]), 220 nM; in assay [2] (setting [4]), 9 nM.

With `Cc1nnc2n1-c1ccc(OCc3ccc(C(=N)N)cc3)cc1C(=O)N(CCC(=O)O)C2` [p-H2 N(NH)CC6 H4 CH2 O], the figures for the IC50 in assay [1] (setting [6]) and in assay [1] (setting [7]) were 5 nM and 86 nM, respectively.

With `N=C(N)c1ccc(COc2ccc3c(c2)C(=O)N(CCC(=O)O)Cc2nc4ccccc4c(=O)n2-3)cc1` [p-H2 N(NH)CC6 H4 CH2 O], the IC50 in assay [1] (setting [6]) came to 540 nM; in assay [1] (setting [7]) it was 1700 nM.
